Consider 18 compounds from patent publication US20260092039A1, “DUAL INHIBITORS FOR THE TREATMENT OF ALZHEIMER'S DISEASE” (UNIVERSITAT DE BARCELONA, priority 2023, published 2026).

Each structure is given as a SMILES string.

Data set [1] has as its target T1, human recombinant glutaminyl cyclase (hQC) (Homo sapiens, UniProt Q16769).
T1 construct: purchased Eurogentec AS-72230
Nature of the data set: In vitro determination of human QC inhibitory activity (SensoLyte Green Glutaminyl Cyclase Activity Assay Kit). Format: biochemical. On the procedure:
Basic statistical analysis was performed.

Data set [2] is described as follows: Parallel artificial membrane permeation assay for blood-brain barrier (PAMPA-BBB). Format: in vitro ADME, porcine. Conditions: for Papp: pig, PBS:EtOH (70:30), read-out: Blood-brain barrier permeability Pe; for CNS prediction: predictive penetration in the CNS from Pe. As to the method: A parallel artificial membrane permeation assay for blood-brain barrier (PAMPA-BBB) was used to evaluate the brain penetration of compounds of formula I, following the method described by L. Di et al., “High throughput artificial membrane permeability assay for blood-brain barrier”, European Journal of Medicinal Chemistry 2003, vol. 38. pp. 223-232. The in vitro permeability (Pe) of the test compounds through a lipid extract of porcine brain membrane was determined. Assayed compounds were tested using a mixture of PBS:EtOH (70:30). Assay validation was made by comparing the experimental and reported permeability values of a set of fourteen commercial drugs and a lineal correlation between experimental and reported permeability values of the fourteen commercial drugs was obtained (y=1.678 x−1.447; R^2=0.9313). From this equation and taking into account the limits established by Di et al. for BBB permeation, the ranges of permeability were established, as follows. Compounds of high BBB permeation (CNS+): Pe (10^−6 cm s^−1)>5.26; compounds of low BBB permeation (CNS−): Pe (10^−6 cm s^−1)<1.91; and compounds of uncertain BBB permeation (CNS+/−): 5.26>Pe (10^−6 cm s^−1)>1.91. The permeability results are averages of three different experiments in triplicate and a predictive penetration in the CNS is also given (Table 5).

In data set [3] the target is T2, recombinant human sEH (hsEH) (Homo sapiens, UniProt P34913).
T2 sequence (P34913 1-555): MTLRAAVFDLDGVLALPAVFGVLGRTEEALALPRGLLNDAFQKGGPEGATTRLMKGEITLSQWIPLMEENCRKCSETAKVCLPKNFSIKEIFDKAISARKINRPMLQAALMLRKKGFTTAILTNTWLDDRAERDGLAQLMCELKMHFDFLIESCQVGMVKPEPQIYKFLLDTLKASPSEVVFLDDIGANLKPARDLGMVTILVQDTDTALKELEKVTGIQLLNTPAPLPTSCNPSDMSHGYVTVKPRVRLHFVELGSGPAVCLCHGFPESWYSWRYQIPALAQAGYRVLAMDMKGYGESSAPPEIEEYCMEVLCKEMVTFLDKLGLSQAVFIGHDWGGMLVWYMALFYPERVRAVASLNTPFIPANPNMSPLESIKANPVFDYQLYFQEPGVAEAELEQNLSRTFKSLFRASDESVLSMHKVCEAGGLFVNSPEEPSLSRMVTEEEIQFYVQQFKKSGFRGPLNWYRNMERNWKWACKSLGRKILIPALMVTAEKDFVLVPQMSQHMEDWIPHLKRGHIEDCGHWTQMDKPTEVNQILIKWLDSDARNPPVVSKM
Nature of the data set: In vitro determination of sEH inhibitory activity (fluorescent PHOME assay).
Description: Control compound (TPPU): N-[1-(1-Oxopropyl)-4-piperidinyl]-N′-[4-(trifluoromethoxy)phenyl]urea.
Five μL of DMSO were added to background and positive control wells, and then 5 μL of inhibitor solution were added in the inhibitor wells. Five μL of the solution of hsEH were added to the positive control and inhibitor wells and the mixture was stirred. A 1/21 dilution of the solution of PHOME with assay buffer was prepared according to the final volume required, and then 105 μL of each well were added. The plate was carefully shaken for 10 seconds and was incubated for 5 minutes at room temperature. […] The intensity of fluorescence was used to analyze and calculate the IC50 values. Results were obtained by regression analysis from at least three data points in a linear region of the curve. IC50 values are average of minimum three independent replicates.

Another data set has as its system LPS stimulated BV2 cells. Nature of the data set: Cytokine release in LPS stimulated BV2 cells. The format is cell-based, murine. The conditions noted are these: compound 10 μM, 24 h. On the procedure: Compounds of formula I were diluted from 250 mM DMSO stock solutions to a 10 mM stock in DMSO. Thereafter, the compounds were diluted to 10 μM and 1 μM in medium, so that the final DMSO concentration in the well was 0.1% for all conditions. The stock solutions were stored at −20° C. until further use.
Culture and treatment of BV-2 cells: The murine microglial cell line BV-2 was cultivated in Dulbecco's modified eagle medium (DMEM) supplemented with 10% fetal calf serum (FCS), 1% penicillin/streptomycin and 2 mM L-glutamine (culture medium). For the lipopolysaccharide (LPS) stimulation assay, 20,000 BV-2 cells per well (uncoated 96 well plates) were plated out. After 48 h, the medium was changed to treatment medium (DMEM, 5% FCS, 2 mM L-glutamine) and cells were maintained in treatment medium for the remaining culture period. After changing cells to treatment medium, the compounds were administered 1 h before LPS stimulation (Sigma-Aldrich; L6529; 1 mg/mL stock in ddH2O, final concentration in well: 100 ng/mL (dilutions in medium)). Cells treated with vehicle and LPS alone served as controls. All wells were handled the same way. After 24 h of stimulation, cell supernatants were collected for the cytokine measurement. The experiment was performed in n=6 technical replicates for all groups.
Cytokine measurement: The samples were diluted 1:2 and analysed for 4 cytokines (IL-1β, IL-2, IL-6, TNF-α) with a commercially available immunosorbent assay kit (U-plex, K15069L, Mesoscale Discovery) according to the instructions of the manufacturer. In brief, 25 μL of diluent 41 and 25 μL sample or respective standard were placed into wells of the pre-coated U-plex plate and incubated on an orbital shaker at room temperature for 1 h. Plates were washed 3 times with phosphate buffered saline with 0.05% Tween 20 (PBST) and thereafter 50 μL of detection antibody were added. Plates were again incubated on an orbital shaker at room temperature for 1 h. After another 3 washing steps with PBST, 150 μL of Mesoscale Discovery (MSD) GOLD Read Buffer were added and plates were read on Sector imager. Data were evaluated in comparison to calibration curves provided in the kit.
Statistics: Basic statistical analysis was performed. Group differences were evaluated by e.g. one-way ANOVA followed by a posthoc test, if appropriate.

T1 sequence (Q16769 29-361): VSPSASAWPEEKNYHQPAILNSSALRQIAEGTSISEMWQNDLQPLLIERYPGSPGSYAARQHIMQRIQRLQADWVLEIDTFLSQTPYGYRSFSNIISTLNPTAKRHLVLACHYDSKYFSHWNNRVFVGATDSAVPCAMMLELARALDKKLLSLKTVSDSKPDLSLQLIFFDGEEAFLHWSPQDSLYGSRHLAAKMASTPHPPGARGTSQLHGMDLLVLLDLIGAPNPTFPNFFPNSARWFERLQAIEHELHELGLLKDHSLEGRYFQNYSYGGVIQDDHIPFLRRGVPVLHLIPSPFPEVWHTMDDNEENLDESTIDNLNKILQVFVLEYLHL

Regarding `Cc1cncn1CCCNC(=O)NC1C2CC3CC(C2)CC1(F)C3` (racemic) [Iaa, (±)-1-(1-fluoroadamantan-2-yl)-3-[3-(5-methyl-1H-imidazol-1-yl)propyl]urea], in data set [1], the IC50 turned out to be 767 nM. Further, in data set [2], the Papp is 7.4 ×10⁻⁶ cm/s and the CNS prediction entry is reported as “CNS+ (Compounds of high BBB permeation (CNS+): Pe (10^−6 cm s^−1)>5.26)”. In addition, the half-maximal inhibitory concentration (IC50) in data set [3] was 5900 nM.
The corresponding values for `Cc1cncn1CCCNC(=O)NC1C2CC3CC(C2)CC1(Cl)C3` (racemic) [Iz, (±)-1-(1-chloroadamantan-2-yl)-3-[3-(5-methyl-1H-imidazol-1-yl)propyl]urea] are 496 nM, 6 ×10⁻⁶ cm/s, “CNS+ (Compounds of high BBB permeation (CNS+): Pe (10^−6 cm s^−1)>5.26)” and 30 nM.
The corresponding values for `Cc1cncn1CCCNC(=O)NC12CC3CC(CC(C3)C1)C2` [Ia, 1-(adamantan-1-yl)-3-[3-(5-methyl-1H-imidazol-1-yl)propyl]urea] are 610 nM, 7.1 ×10⁻⁶ cm/s, “CNS+ (Compounds of high BBB permeation (CNS+): Pe (10^−6 cm s^−1)>5.26)” and 35 nM.
With `Cc1cncn1CCCNC(=O)N[C@H]1C2CC3CC1C[C@](Cl)(C3)C2` [Iab, trans-1-(5-chloroadamantan-2-yl)-3-[3-(5-methyl-1H-imidazol-1-yl)propyl]urea], the IC50 in data set [1] turned out to be 559 nM; in data set [3] it was 39 nM. In addition, in data set [2], the Papp was 13.1 ×10⁻⁶ cm/s. Moreover, the CNS prediction entry in data set [2] was “CNS+ (Compounds of high BBB permeation (CNS+): Pe (10^−6 cm s^−1)>5.26)”.
The corresponding values for `Cc1cncn1CCCNC(=O)N[C@H]1C2CC3CC1C[C@](F)(C3)C2` [Iac, trans-1-(5-fluoroadamantan-2-yl)-3-[3-(5-methyl-1H-imidazol-1-yl)propyl]urea] are 236 nM, 20 nM, 8.6 ×10⁻⁶ cm/s and “CNS+ (Compounds of high BBB permeation (CNS+): Pe (10^−6 cm s^−1)>5.26)”.
In the case of `O=C(NCCCn1ccnc1)NC12CC3CC(CC(C3)C1)C2` [Ib, 1-[3-(1H-imidazol-1-yl)propyl]-3-(adamantan-1-yl)urea], the 50% inhibitory concentration (IC50) in data set [1] was 12700 nM; in data set [3], 93 nM.
Turning to `Cc1cncn1CCCNC(=O)NC12CC3CC(CC(C)(C3)C1)C2` [Ic, 1-[3-(5-methyl-1H-imidazol-1-yl)propyl]-3-(3-methyladamantan-1-yl)urea], in data set [2], the Papp was 10.2 ×10⁻⁶ cm/s and the CNS prediction result is reported as “CNS+ (Compounds of high BBB permeation (CNS+): Pe (10^−6 cm s^−1)>5.26)”. For the same compound, the half-maximal inhibitory concentration (IC50) in data set [3] is 13.3 nM.
`Cc1cncn1CCCNC(=O)NC12CC3CC(C)(CC(C)(C3)C1)C2` [Ie, 1-(3,5-dimethyladamantan-1-yl)-3-[3-(5-methyl-1H-imidazol-1-yl)propyl]urea]: the values for the half-maximal inhibitory concentration (IC50) in data set [1] and in data set [3] were 2100 nM and 29 nM, respectively. Moreover, in data set [2], the Papp stood at 8.8 ×10⁻⁶ cm/s. For the same compound, the CNS prediction result in data set [2] was “CNS+ (Compounds of high BBB permeation (CNS+): Pe (10^−6 cm s^−1)>5.26)”.
On to `Cc1cncn1CCCNC(=O)NC12CC3CC(CC(Cl)(C3)C1)C2` [If, 1-(3-chloroadamantan-1-yl)-3-[3-(5-methyl-1H-imidazol-1-yl)propyl]urea], for which the IC50 in data set [1] was determined as 990 nM; in data set [3], 37 nM.
Taken in the same sequence, the figures for `Cc1cncn1CCCNC(=O)NC12CC3CC(CC(F)(C3)C1)C2` [Ig, 1-(3-fluoroadamantan-1-yl)-3-[3-(5-methyl-1H-imidazol-1-yl)propyl]urea] were 810 nM and 150 nM.
As to `Cc1cncn1CCCNC(=O)NC12CC3CC(CC(O)(C3)C1)C2` [Ih, 1-(3-hydroxyadamantan-1-yl)-3-[3-(5-methyl-1H-imidazol-1-yl)propyl]urea], the half-maximal inhibitory concentration (IC50) is 1040 nM in data set [1] and 330 nM in data set [3].
For the compound `O=C(NCCCn1ccnc1)NC1C2CC3CC(C2)CC1C3` (stereo not shown) [Ij, 1-[3-(1H-imidazol-1-yl)propyl]-3-(adamantan-2-yl)urea], in data set [1], the IC50 came out at 5200 nM. Also, in data set [2], the Papp is 9.4 ×10⁻⁶ cm/s and the CNS prediction result is on record as “CNS+ (Compounds of high BBB permeation (CNS+): Pe (10^−6 cm s^−1)>5.26)”. The half-maximal inhibitory concentration (IC50) in data set [3] came out at 45 nM.
As for `Cc1cncn1CCCNC(=O)NC12CC3CC(CC(C3)O1)C2` [Iq, 1-(2-oxaadamantan-1-yl)-3-[3-(5-methyl-1H-imidazol-1-yl)propyl]urea], in data set [2], the Papp amounted to 26.4 ×10⁻⁶ cm/s and the CNS prediction entry is recorded as “CNS+ (Compounds of high BBB permeation (CNS+): Pe (10^−6 cm s^−1)>5.26)”. In data set [3], the IC50 was 5100 nM.
The corresponding values for `Cc1cncn1CCCNC(=O)NCC12CC3CC(CC1C3)C2` [Iu, 1-[(noradamantan-3-yl)methyl]-3-[3-(5-methyl-1H-imidazol-1-yl)propyl]urea] are 5.4 ×10⁻⁶ cm/s, “CNS+ (Compounds of high BBB permeation (CNS+): Pe (10^−6 cm s^−1)>5.26)” and 194 nM.
As for `Cc1cncn1CCCNC(=O)NCC12CC3(C)C4(C)CC1CC4(C)C3(C)C2` [Iw, 1-[3-(5-methyl-1H-imidazol-1-yl)propyl]-3-[(3,4,8,9-tetramethyltetracyclo[4.4.0.0^3,9.0^4,8]decan-1-yl)methyl]urea], the half-inhibitory concentration (IC50) in data set [1] came to 6800 nM; in data set [3] it was 72 nM.
As to `Cc1cncn1CCCNC(=O)NC(C)C12CC3CC(CC(C3)C1)C2` (stereo not shown) [Ix, 1-[1-(adamantan-1-yl)ethyl]-3-[3-(5-methyl-1H-imidazol-1-yl)propyl]urea], in data set [2], the Papp stood at 6.5 ×10⁻⁶ cm/s and the CNS prediction entry is given as “CNS+ (Compounds of high BBB permeation (CNS+): Pe (10^−6 cm s^−1)>5.26)”. Besides, the half-inhibitory concentration (IC50) in data set [3] came to 59 nM.
With `CCC(=O)N1CCC(NC(=O)Nc2ccc(OC(F)(F)F)cc2)CC1` [TPPU, N-[1-(1-Oxopropyl)-4-piperidinyl]-N′-[4-(trifluoromethoxy)phenyl]urea, reference compound], in the data set with LPS stimulated BV2 cells, the IL-1β level is given as 125 % of vehicle control, the IL-2 level is 113 % of vehicle control, the IL-6 level was 117 % of vehicle control and the TNF-α level is on record as 96 % of vehicle control.
The corresponding values for `C[C@@H]1C[C@H]2[C@@H]3CCC4=CC(=O)C=C[C@]4(C)[C@@]3(F)[C@@H](O)C[C@]2(C)[C@@]1(O)C(=O)CO` [dexamethasone, reference compound] are 42 % of vehicle control, 50 % of vehicle control, 55 % of vehicle control and 49 % of vehicle control.

What is called IC50 is the point on the concentration scale where inhibition reaches its midpoint.
